For one test, the target named is T1, GPR6 (Homo sapiens, UniProt P46095).
T1 construct: expressed in transfected cells; host or cells: CHO cells
In words: GPR6 antagonist functional cAMP assay (LANCE Ultra cAMP TR-FRET, CHO cells stably expressing GPR6). Type of test: cell-based. In short, it runs like this: (§1)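 Cells in Krebs-Ringer buffer with 0.1% BSA and 150 μM Ro 20-1724 PDE inhibitor were exposed to compounds for 45 min at 37 °C (0.1% DMSO). cAMP was read by TR-FRET at 665 nm; IC50s came from 4-parameter fits normalized to DMSO and reference compound.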
In general terms: cAMP levels reflect the balance of adenylyl cyclase and phosphodiesterase activity.

The target in another test is T2, GPR3 (Homo sapiens, UniProt P46089).
T2 construct: expressed in transfected cells; host or cells: CHO cells
Briefly: GPR3 antagonist functional cAMP assay (LANCE Ultra cAMP TR-FRET, CHO cells stably expressing GPR3). Type of test: cell-based. A digest of the protocol:
as §1

Where [1] appears, read: CHO cells stably expressing GPR6, cAMP assay (Example 24).
Where [2] appears, read: CHO cells stably expressing GPR3, cAMP assay (Example 24).
[3] abbreviates: CHO cells stably expressing GPR6, cAMP assay.
[4] abbreviates: CHO cells stably expressing GPR3, cAMP assay.

A value given as a limit tells only on which side of the number the result lay.

The text below walks through data of patent US20260042755A1, “GPR6 INVERSE AGONISTS” (MapLight Therapeutics, Inc., priority 2022, published 2026).

T2 sequence (P46089 whole entry, species assumed): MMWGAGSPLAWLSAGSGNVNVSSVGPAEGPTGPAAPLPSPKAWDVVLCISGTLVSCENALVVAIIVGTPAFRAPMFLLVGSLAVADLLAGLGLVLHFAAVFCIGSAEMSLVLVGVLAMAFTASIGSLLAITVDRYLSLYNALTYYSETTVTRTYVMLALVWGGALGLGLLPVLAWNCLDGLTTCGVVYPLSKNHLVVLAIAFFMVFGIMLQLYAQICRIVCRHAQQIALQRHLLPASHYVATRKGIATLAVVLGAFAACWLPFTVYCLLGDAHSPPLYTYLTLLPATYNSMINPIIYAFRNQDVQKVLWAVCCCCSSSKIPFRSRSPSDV
T1 sequence (P46095 whole entry): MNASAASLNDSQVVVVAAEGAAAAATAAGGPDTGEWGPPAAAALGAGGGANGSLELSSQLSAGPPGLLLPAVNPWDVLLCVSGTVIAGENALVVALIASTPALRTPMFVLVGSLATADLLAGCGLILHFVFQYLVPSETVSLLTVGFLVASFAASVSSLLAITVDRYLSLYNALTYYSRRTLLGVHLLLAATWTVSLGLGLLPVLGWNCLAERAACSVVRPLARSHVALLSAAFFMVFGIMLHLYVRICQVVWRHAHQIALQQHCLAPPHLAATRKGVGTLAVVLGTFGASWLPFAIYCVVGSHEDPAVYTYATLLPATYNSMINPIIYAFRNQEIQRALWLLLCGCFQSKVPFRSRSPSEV

As for `CC(=O)N1CCc2nc(N3CCC(Oc4ccc(F)cc4F)CC3)c(-c3cncc(O)c3)nc2C1` [Compound 158, 1-{2-[4-(2,4-difluorophenoxy)piperidin-1-yl]-3-(5-hydroxypyridin-3-yl)-5H,6H,7H,8H-pyrido[3,4-b]pyrazin-6-yl}ethan-1-one], the IC50 on GPR6 (setting [1]) lay in the range of 1000 to 30000 nM; on GPR3 (setting [2]), 1 to 30 µM.

Turning to `CCN1CCc2nc(N3CCC(Oc4ccc(F)cc4F)CC3)c(-c3cn[nH]c3)nc2C1` [Compound 170, 4-(2,4-difluorophenoxy)-1-[6-ethyl-3-(1H-pyrazol-4-yl)-5H,6H,7H,8H-pyrido[3,4-b]pyrazin-2-yl]piperidine], the figures for the IC50 on GPR6 (setting [1]) and at GPR3 (setting [2]) were 100 to 1000 nM and 1 to 30 µM, respectively.

Turning to `CC(C)(O)C(C)(O)c1cc2nc(-c3cnn(CF)c3)c(N3CCC(Oc4ccc(F)cc4F)CC3)nc2cn1` (stereo not drawn) [Compound 661, 2-{3-[4-(2,4-difluorophenoxy)-1-piperidyl]-2-[1-(fluoromethyl)-4-pyrazolyl]-1,4,6-triaza-7-naphthyl}-3-methyl-2,3-butanediol], the IC50 on GPR6 (procedure of Example 24) lay in the range of 100 to 1000 nM; at GPR3 (procedure of Example 24), 1 to 30 µM.

`CC(=O)N1CCc2nc(N3CCc4c(cnn4-c4ccc(F)cc4F)C3)c(-c3cnn(C)c3)nc2C1` [Compound 789, 1-{2-[1-(2,4-difluorophenyl)-4,5,6,7-tetrahydro-1H-1,2,5-triazainden-5-yl]-3-(1-methyl-4-pyrazolyl)-5,6,7,8-tetrahydro-1,4,6-triaza-6-naphthyl}-1-ethanone]: the IC50 against GPR6 (procedure of Example 24) fell in the range of 1000 to 30000 nM; at GPR3 (procedure of Example 24) it was 1 to 30 µM.

For `CC(=O)N1CCc2nc(N3CCC(Oc4ccc(F)cc4F)CC3)c(/C=C3/CCOC3)nc2C1` [Compound 494, 1-{2-[4-(2,4-difluorophenoxy)piperidin-1-yl]-3-{[(3Z)-oxolan-3-ylidene]methyl}-5H,6H,7H,8H-pyrido[3,4-b]pyrazin-6-yl}ethan-1-one], the IC50 against GPR6 (setting [3]) lay in the range of 100 to 1000 nM; at GPR3 (setting [4]) it was 1 to 30 µM.

`O=C(C1COC1)N1CCc2nc(N3CCC(Oc4ccc(F)cc4F)CC3)c(-c3cn[nH]c3)nc2C1` [Compound 184, 4-(2,4-difluorophenoxy)-1-[6-(oxetane-3-carbonyl)-3-(1H-pyrazol-4-yl)-5H,6H,7H,8H-pyrido[3,4-b]pyrazin-2-yl]piperidine]: the IC50 against GPR6 (setting [1]) is less than 100 nM; on GPR3 (setting [2]) it was 1 to 30 µM.

Regarding `CC(C)(O)C(=O)N1CCc2nc(N3CCC(Oc4ccc(F)cc4F)CC3)c(-c3cn[nH]c3)nc2C1` [Compound 175, 1-{2-[4-(2,4-difluorophenoxy)piperidin-1-yl]-3-(1H-pyrazol-4-yl)-5H,6H,7H,8H-pyrido[3,4-b]pyrazin-6-yl}-2-hydroxy-2-methylpropan-1-one], the IC50 on GPR6 (setting [1]) fell in the range of 100 to 1000 nM; against GPR3 (setting [2]) it was 1 to 30 µM.

`CC(C)(O)[C@H](O)c1cc2nc(N3CCC(Oc4ccc(F)cc4F)CC3)c(-c3cnn(C(F)F)c3)nc2cn1` (single isomer, unassigned) [Compound 554]: the IC50 against GPR6 (setting [3]) was less than 100 nM; against GPR3 (setting [4]) it was 1 to 30 µM.

For `CC(C)(O)C(C)(O)c1cc2nc(N3CCN(Cc4ccc(F)cc4F)CC3)c(-c3cnn(C(F)F)c3)nc2cn1` (stereo not drawn) [Compound 657, 2-{3-[1-(difluoromethyl)-4-pyrazolyl]-2-{4-[(2,4-difluorophenyl)methyl]-1-piperazinyl}-1,4,6-triaza-7-naphthyl}-3-methyl-2,3-butanediol], the IC50 was in the range of 100 to 1000 nM against GPR6 (procedure of Example 24) and 1 to 30 µM against GPR3 (procedure of Example 24).

As for `CC(=O)N1CCc2nc(N3CCN(Cc4cc(Cl)ccc4F)CC3)c(-c3cnn(C)c3)nc2C1` [Compound 349, 1-(2-{4-[(5-chloro-2-fluorophenyl)methyl]piperazin-1-yl}-3-(1-methyl-1H-pyrazol-4-yl)-5H,6H,7H,8H-pyrido[3,4-b]pyrazin-6-yl)ethan-1-one], the results for the IC50 against GPR6 (procedure of Example 24) and against GPR3 (procedure of Example 24) were less than 100 nM and 1 to 30 µM, respectively.

Regarding `CC(=O)N1CCc2nc(N3CCC4(CC3)CC4c3ccc(F)cc3F)c(-c3cnn(C)c3)nc2C1` (stereo not drawn) [Compound 660, 1-(2-(1-(2,4-difluorophenyl)-6-azaspiro[2.5]octan-6-yl)-3-(1-methyl-1H-pyrazol-4-yl)-7,8-dihydropyrido[3,4-b]pyrazin-6(5H)-yl)ethan-1-one], the IC50 at GPR6 (procedure of Example 24) is 1000 to 30000 nM; at GPR3 (procedure of Example 24), 1 to 30 µM.

With `CC(=O)N1CCc2nc(N3CCC(Oc4ccc(F)cc4F)CC3)c(-c3ccc(F)c(N)n3)nc2C1` [Compound 372, 1-{3-(6-amino-5-fluoro-2-pyridyl)-2-[4-(2,4-difluorophenoxy)-1-piperidyl]-5,6,7,8-tetrahydro-1,4,6-triaza-6-naphthyl}-1-ethanone], the half-maximal inhibitory concentration (IC50) on GPR6 (procedure of Example 24) is 100 to 1000 nM; at GPR3 (procedure of Example 24) it was 1 to 30 µM.

With `CCn1cc(-c2nc3cnc(C)cc3nc2N2CCC(Oc3ccc(F)cc3F)CC2)cn1` [Compound 313, 4-(2,4-difluorophenoxy)-1-[3-(1-ethyl-1H-pyrazol-4-yl)-7-methylpyrido[3,4-b]pyrazin-2-yl]piperidine], the IC50 on GPR6 (procedure of Example 24) is 100 to 1000 nM; on GPR3 (procedure of Example 24), 1 to 30 µM.

Regarding `CC(C)(O)[C@H](O)c1cc2nc(N3CCC(=Cc4ccc(F)cc4F)CC3)c(-c3cnn(C(F)F)c3)nc2cn1` (single isomer, unassigned) [Compound 779], the IC50 on GPR6 (procedure of Example 24) is less than 100 nM; at GPR3 (procedure of Example 24) it was 1 to 30 µM.

On to `CC(=O)N1CCc2nc(N3CCC(Oc4ccc(F)cc4F)CC3)c(-c3cncc(OC(F)F)n3)nc2C1` [Compound 239, 1-{3-[6-(difluoromethoxy)pyrazin-2-yl]-2-[4-(2,4-difluorophenoxy)piperidin-1-yl]-5H,6H,7H,8H-pyrido[3,4-b]pyrazin-6-yl}ethan-1-one], for which the figures for the IC50 against GPR6 (setting [1]) and on GPR3 (setting [2]) were 1000 to 30000 nM and 1 to 30 µM, respectively.

As to `COCCN1CCc2nc(N3CCC(Oc4ccc(F)cc4F)CC3)c(-c3cnn(C4CCCCO4)c3)nc2C1` (stereo not drawn) [Compound 142, 4-(2,4-difluorophenoxy)-1-[6-(2-methoxyethyl)-3-[1-(oxan-2-yl)-1H-pyrazol-4-yl]-5H,6H,7H,8H-pyrido[3,4-b]pyrazin-2-yl]piperidine], the IC50 against GPR6 (setting [1]) lay in the range of 1000 to 30000 nM; at GPR3 (setting [2]), 1 to 30 µM.

For the compound `COCCn1cc(-c2nc3c(nc2N2CCC(Oc4ccc(F)cc4F)CC2)CCN(C(C)=O)C3)cn1` [Compound 74, 1-{2-[4-(2,4-difluorophenoxy)piperidin-1-yl]-3-[1-(2-methoxyethyl)-1H-pyrazol-4-yl]-5H,6H,7H,8H-pyrido[3,4-b]pyrazin-6-yl}ethan-1-one], the values for the IC50 on GPR6 (setting [1]) and against GPR3 (setting [2]) were 100 to 1000 nM and 1 to 30 µM, respectively.

Turning to `CC(=O)N1CCc2nc(N3CCC(Oc4ccc(F)cc4F)CC3)c(-c3cccc(OC(F)(F)F)n3)nc2C1` [Compound 223, 1-{2-[4-(2,4-difluorophenoxy)piperidin-1-yl]-3-[6-(trifluoromethoxy)pyridin-2-yl]-5H,6H,7H,8H-pyrido[3,4-b]pyrazin-6-yl}ethan-1-one], the IC50 on GPR6 (setting [1]) was 100 to 1000 nM; against GPR3 (setting [2]), 1 to 30 µM.

`Cn1cc(-c2nc3cnc([C@@H](O)C(C)(C)F)cc3nc2N2CCC(Oc3ccc(F)cc3F)CC2)cn1` (single isomer, unassigned) [Compound 744]: the IC50 on GPR6 (procedure of Example 24) is 100 to 1000 nM; at GPR3 (procedure of Example 24), 1 to 30 µM.

For `CC(C)(O)[C@@H](O)c1cc2nc(N3CCC(Oc4ccc(F)cc4F)CC3)c(-c3cnn(C4CC4)c3)nc2cn1` (single isomer, unassigned) [Compound 573], the IC50 against GPR6 (setting [3]) lay within 100 to 1000 nM; against GPR3 (setting [4]), 1 to 30 µM.

Regarding `Fc1ccc(OC2CCN(c3nc4ccncc4nc3-c3ccn[nH]3)CC2)c(F)c1` [Compound 85, 4-(2,4-difluorophenoxy)-1-[3-(1H-pyrazol-5-yl)pyrido[3,4-b]pyrazin-2-yl]piperidine], the IC50 was 1000 to 30000 nM against GPR6 (setting [1]) and 1 to 30 µM against GPR3 (setting [2]).

As for `COc1ccc(CN2CCN(c3nc4c(nc3-c3cnn(C)c3)CN(C(C)=O)CC4)CC2)cn1` [Compound 345, 1-(2-{4-[(6-methoxypyridin-3-yl)methyl]piperazin-1-yl}-3-(1-methyl-1H-pyrazol-4-yl)-5H,6H,7H,8H-pyrido[3,4-b]pyrazin-6-yl)ethan-1-one], the IC50 at GPR6 (procedure of Example 24) lay within 1000 to 30000 nM; at GPR3 (procedure of Example 24), 1 to 30 µM.

As to `CC(C)(O)[C@H](O)c1cc2nc(N3CCN(Cc4ccc(F)cc4F)CC3)c(-c3cnn(CF)c3)nc2cn1` (single isomer, unassigned) [Compound 598], the IC50 against GPR6 (setting [3]) was 100 to 1000 nM; on GPR3 (setting [4]), 1 to 30 µM.

In the case of `CCn1cc(-c2nc3cnc(C(C)(O)C(C)(C)O)cc3nc2N2CCC(Oc3ccc(F)cc3F)CC2)cn1` (stereo not drawn) [Compound 631, 2-{2-[4-(2,4-difluorophenoxy)-1-piperidyl]-3-(1-ethyl-4-pyrazolyl)-1,4,6-triaza-7-naphthyl}-3-methyl-2,3-butanediol], the IC50 against GPR6 (procedure of Example 24) is 100 to 1000 nM; against GPR3 (procedure of Example 24), 1 to 30 µM.

`CC(=O)N1CCc2nc(N3CCC(Oc4ccc(F)cc4F)CC3)c(-c3cc[nH]c(=O)c3)nc2C1` [Compound 66, 4-{6-acetyl-2-[4-(2,4-difluorophenoxy)piperidin-1-yl]-5H,6H,7H,8H-pyrido[3,4-b]pyrazin-3-yl}-1,2-dihydropyridin-2-one]: the IC50 against GPR6 (setting [1]) lay in the range of 1000 to 30000 nM; against GPR3 (setting [2]), 1 to 30 µM.

Regarding `COc1cccc(OC2CCN(c3nc4c(nc3-c3cnn(C)c3)CN(C(C)=O)CC4)CC2)c1F` [Compound 427, 1-{2-[4-(2-fluoro-3-methoxyphenoxy)piperidin-1-yl]-3-(1-methyl-1H-pyrazol-4-yl)-5H,6H,7H,8H-pyrido[3,4-b]pyrazin-6-yl}ethan-1-one], the IC50 lay within 1000 to 30000 nM against GPR6 (setting [1]) and 1 to 30 µM at GPR3 (setting [2]).

As to `CCn1cc(-c2nc3c(nc2N2CCC(Oc4ccc(F)cc4F)CC2)CCN(C(=O)C2CC(F)(F)CN2)C3)cn1` (stereo not drawn) [Compound 481, (2-(4-(2,4-difluorophenoxy)piperidin-1-yl)-3-(1-ethyl-1H-pyrazol-4-yl)-7,8-dihydropyrido[3,4-b]pyrazin-6(5H)-yl)(4,4-difluoropyrrolidin-2-yl)methanone], the IC50 was 100 to 1000 nM at GPR6 (setting [1]) and 1 to 30 µM against GPR3 (setting [2]).

By IC50 is commonly meant the concentration at which inhibition is half-maximal. Low readings indicate greater potency, high ones weaker potency.
